Literature values in US8735360B2 (priority 2009, dated 2014).
Positions of bridges follow the written chain, without caps; N, C: chain ends. Residues, ends and D or L forms follow the SMILES beside them.

Settings: oral administration at therapeutic dose levels; cited from earlier work

C[C@@H]1NC(=O)[C@@H]2CCCN2C(=O)[C@H](CC(N)=O)NC(=O)[C@@H]2CSSC[C@H](N)C(=O)N[C@H]3CSSC[C@H](NC1=O)C(=O)N[C@@H]([C@@H](C)O)C(=O)NCC(=O)N[C@H](C(=O)N[C@@H](Cc1ccc(O)cc1)C(=O)O)CSSC[C@H](NC(=O)[C@H](Cc1ccc(O)cc1)NC(=O)[C@H](CCC(=O)O)NC3=O)C(=O)N2 [linaclotide, Linaclotide] (H-CCEYCCNPACTGCY-OH; disulfide 1-6, 2-10, 5-13)
Levels seen systemically after oral administration: no detectable levels
